The source of these data is patent publication US6498156B2, “Diphenylazetidinone derivatives, process for their preparation, medicaments comprising these compounds and their use” (Aventis Pharma Deutschland GmbH, priority 2000, dated 2002).

Data set [1] deals with Cholesterol absorption (uptake of 14C-cholesterol by the liver). In words: Cholesterol absorption test: uptake of 14C-cholesterol by the liver after peroral test meal. It counts as in vivo, NMRI mice. The conditions noted are these: dose at which the uptake of 14C-cholesterol by the liver is halved (50%) vs control group, mouse. The text has this: Effect on Cholesterol Absorption +^3H-taurocholic Acid Excretion Using Fecal Excrement of Mice, Rats or Hamsters
NMRI mice, Wistar rats, or Golden Syrian hamsters (in groups of n=4-6) are kept in metabolic cages, where they are fed with a standard diet (Altromin, Lage (Lippe)). The afternoon prior to the administration of the radioactive tracers (^14C-cholesterol), the feed is removed and the animals are adapted to grates.
Additionally, the animals are labeled s.c. with ^3H-TCA (taurocholic acid) (for example 1 μCi/mouse up to 5 μCi/rat) 24 hours prior to the peroral administration of the test meal (^14C-cholesterol in Intralipid® 20, Pharmacia-Upjohn).
Cholesterol absorption test: 0.25 ml/mouse Intralipid ® 20 (Pharmacia-Upjohn) ((Spiked with 0.25 μCi of ^14C-cholesterol in 0.1 mg of cholesterol) are administered perorally by gavage.
Test substances were prepared separately in 0.5% methylcellulose (Sigma)/5% Solutol (BASF, Ludwigshafen) or a suitable vehicle.
The administration volume of the test substance is 0.5 ml/mouse. The test substance is administered immediately prior to the test meal (Intralipid labeled with ^14C-cholesterol) (cholesterol absorption test).
The feces are collected over a period of 24 h: fecal elimination of ^14C-cholesterol and ^3H-taurocholic acid (TCA) is determined after 24 hours.
The livers are removed and homogenized, and aliquots are incinerated in an oximate (Model 307, Packard) to determine the amount of ^14C-cholesterol which had been taken up/absorbed.
The amount of ^14C-cholesterol taken up by the liver is based on the administered dose. The ED50 values are interpolated from a dose-effect curve as the dose at of which the uptake of ^14C-cholesterol by the liver is halved (50%), based on a control group.

The next data set deals with Caco-2 cell monolayers. In words: Bioabsorption in the Caco cell model. It counts as in vitro ADME. The settings on record: estimated from Caco cell model data. The text has this: (§1) The bioabsorption of the compounds of the formula I was examined using the Caco cell model (A. R. Hilgers et al., Caco-2 cell monolayers as a model for drug transport across the intestinal mucosa, Pharm. Res. 1990, 7, 902).
(§2) From the measured data, it can be seen that the bioabsorption of the compounds of the formula I according to the invention is considerably lower than that of compounds described in the prior art (reference structure): […]

The nature of data set [2]: Bioabsorption in the Caco cell model. The format is in vitro ADME. The conditions noted are these: human, Caco-2; Caco cell model; read-out: Apparent partition coefficient Papp (according to Lit. Hilgers).
Text: as §1, §2

A value given as a limit tells only on which side of the number the result lay.

A word on the melting point: it is the temperature of the solid-liquid transition. In the case of `CCCCC1(CC)CS(=O)(=O)c2ccc(N(C)C)cc2C(c2cccc(NC(=O)CCCCC(=O)NCc3ccc(C4C(CCC(O)c5ccccc5)C(=O)N4c4ccc(F)cc4)cc3)c2)C1O` (stereo not drawn) [II, N-[3-(3-Butyl-7-dimethylamino-3-ethyl-4-hydroxy-1,1-dioxo-2,3,4,5-tetrahydro-1H-benzo[b]thiepin-5-yl)phenyl]-N′-4-[1-(4-fluorophenyl)-3-(3-hydroxy-3-phenylpropyl)-4-oxoazetidin-2-yl]benzyl-hexanediamide], the melting point came to 150 °C. Besides, the “ED50 (liver)” value in data set [1] amounted to 0.01 mg/mouse. Take `CCCCC1(CC)CS(=O)(=O)c2ccc(N(C)C)cc2C(c2cccc(NC(=O)COCCOCC(=O)NCc3cccc(C4C(CCC(O)c5ccc(F)cc5)C(=O)N4c4ccc(F)cc4)c3)c2)C1O.O=C(O)C(F)(F)F` (stereo not drawn) [VIII, (3-Butyl-3-ethyl-5-[3-(2-{2-[(3-{1-(4-fluorophenyl)-3-[3-(4-fluorophenyl)-3-hydroxypropyl]-4-oxoazetidin-2-yl}benzylcarbamoyl)methoxy]ethoxy}acetylamino)phenyl]-4-hydroxy-1,1-dioxo-2,3,4,5-tetrahydro-1H-benzo[b]thiepin-7-yl)dimethylammonium Trifluoroacetate]: the “ED50 (liver)” value in data set [1] came to 0.003 mg/mouse.

Consider `CCCCC1(CC)CS(=O)(=O)c2ccc(N(C)C)cc2C(c2cccc(NC(=O)COCCOCC(=O)NCc3ccc(N4C(=O)C(CCC(O)c5ccc(F)cc5)C4c4ccc(OC)cc4)cc3)c2)C1O` (stereo not drawn) [XXX, 2-(2-{[3-(3-Butyl-7-dimethylamino-3-ethyl-4-hydroxy-1,1-dioxo-2,3,4,5-tetrahydro-1H-benzo[b]thiepin-5-yl)phenylcarbamoyl]methoxy}ethoxy)-N-{4-[3-[3-(4-fluorophenyl)-3-hydroxypropyl]-2-(4-methoxyphenyl)-4-oxoazetidin-1-yl]benzyl}acetamide], for which the melting point was 116 to 125 °C. Turning to `CCCCC1(CC)CS(=O)(=O)c2ccc(N(C)C)cc2C(c2cccc(NC(=O)CCCCCCCNCc3ccc(C4C(CCC(O)c5ccc(F)cc5)C(=O)N4c4ccc(F)cc4)cc3)c2)C1O.O=C(O)C(F)(F)F` (stereo not drawn) [XXV], the “ED50 (liver)” value in data set [1] is 0.01 mg/mouse. On the same count and under the same terms, the same measure for `CCCCC1(CC)CS(=O)(=O)c2ccc(N(C)C)cc2C(c2cccc(NC(=O)CCCCC(=O)NCc3ccc(C4C(CCC(O)c5ccc(F)cc5)C(=O)N4c4ccc(F)cc4)cc3)c2)C1O` (stereo not drawn) [III, N-[3-(3-Butyl-7-dimethylamino-3-ethyl-4-hydroxy-1,1-dioxo-2,3,4,5-tetrahydro-1H-benzo[b]thiepin-5-yl)phenyl]-N′-4-{1-(4-fluorophenyl)-3-[3-(4-fluorophenyl)-3-hydroxypropyl]-4-oxo-azetidin-2-yl}benzyl-hexanediamide]: 0.03 mg/mouse. What is called Papp is the rate of passage across a membrane or cell layer, normalised by area and donor concentration. Consider `O=C1[C@H](CC[C@H](O)c2ccc(F)cc2)[C@@H](c2ccc(O)cc2)N1c1ccc(F)cc1` [Reference structure, Ezetimibe, reference compound], for which the Estimated human bioabsorption in the data set with Caco-2 cell monolayers is listed as 100%. Further, the Papp in data set [2] was found to be 4.88 ×10⁻⁶ cm/s. For `CCCCC1(CC)CS(=O)(=O)c2ccc(N(C)C)cc2C(c2cccc(NC(=O)COCCOCCOCC(=O)NCc3ccc(C4C(CCC(O)c5ccccc5)C(=O)N4c4ccc(F)cc4)cc3)c2)C1O` (stereo not drawn) [VI, [2-(2-{[3-(3-Butyl-7-dimethylamino-3-ethyl-4-hydroxy-1,1-dioxo-2,3,4,5-tetrahydro-1H-benzo[b]thiepin-5-yl)-phenylcarbamoyl]methoxy}ethoxy)ethoxy]-[N-{4-[1-(4-fluorophenyl)-3-(3-hydroxy-3-phenylpropyl)-4-oxoazetidin-2-yl]benzyl}]acetamide], the melting point was determined as 120 °C. `CCCCC1(CC)CS(=O)(=O)c2ccc(N(C)C)cc2C(c2cccc(NC(=O)CCCCCCCCCCC(=O)NCc3cccc(C4C(CCC(O)c5ccc(F)cc5)C(=O)N4c4ccc(F)cc4)c3)c2)[C@H]1O.O=C(O)C(F)(F)F` (stereo in doubt) [Example XII, (3-Butyl-3-ethyl-5-{3-[11-(3-{1-(4-fluorophenyl)-3-[3-(4-fluorophenyl)-3-hydroxypropyl]-4-oxoazetidin-2-yl}benzylcarbamoyl)undecanoylamino]phenyl}-4-hydroxy-1,1-dioxo-2,3,4,5-tetrahydro-1H-benzo[b]thiepin-7-yl)dimethylammonium Trifluoro-acetate]: the Estimated human bioabsorption in the data set on Caco-2 cell monolayers is reported as <1%. For the same compound, the Papp in data set [2] turned out to be 0.00367 ×10⁻⁶ cm/s. In the case of `CCCCC1(CC)CS(=O)(=O)c2ccc(N(C)C)cc2C(c2cccc(NC(=O)COCCOCCOCC(=O)NCc3ccc(N4C(=O)C(CCC(O)c5ccc(F)cc5)C4c4ccc(OC)cc4)cc3)c2)C1O` (stereo not drawn) [XXXI, N-[3-(3-Butyl-7-dimethylamino-3-ethyl-4-hydroxy-1,1-dioxo-2,3,4,5-tetrahydro-1H-benzo[b]thiepin-5-yl)phenyl]-2-{2-[2-({4-[3-[3-(4-fluorophenyl)-3-hydroxypropyl]-2-(4-methoxyphenyl)-4-oxoazetidin-1-yl]benzylcarbamoyl}methoxy)ethoxy]ethoxy}acetamide], the “ED50 (liver)” value in data set [1] is 0.1 mg/mouse.
